The values that follow come from publication PMC8537445, “D-Peptide-Based Probe for CXCR4-Targeted Molecular Imaging and Radionuclide Therapy” (Pharmaceutics, 2021).

A short description of data set [1]: Stability in human serum (radioHPLC). It is filed as in vitro ADME. As to conditions: male, human serum (H4522 human male AB plasma), 5-fold dilution in human serum, 9 days at 37 °C, read-out: intact radioligand in human serum. The method, then: Formulated solutions of [^18F]AlF-NOTA-DV1-k-(DV3) and [^68Ga]Ga-DOTA-DV1-k-(DV3) were evaluated by radioHPLC 5 h and 2 h after radiosynthesis, respectively. In addition, 5-fold dilutions in human serum (H4522 human male AB plasma, USA origin, sterile-filtered, Sigma Aldrich, Saint Louis, MO, USA) were incubated at 37 °C for 2 h and analyzed using radioHPLC.
A formulated solution of [^177Lu]Lu-DOTA-DV1-k-(DV3) was evaluated by radioHPLC after 9 days of storage at 4 °C. A 5-fold dilution of [^177Lu]Lu-DOTA-DV1-k-(DV3) in human serum (H4522 human male AB plasma, USA origin, sterile-filtered, Sigma Aldrich, Saint Louis, MO, USA) was incubated at 37 °C for 9 days and analyzed by radioHPLC.

The next data set in a line: in vivo. As to conditions: female, SCID (CB17.Cg-Prkdc<scid>Lyst<bg-J>/Crl), mouse, tumor, iv, total radioactivity.
Data set [2] is described as follows: Ex vivo biodistribution in wild-type mice. As to conditions: mouse, total radioactivity, 75 min p.i., ex vivo gamma counting, mean ± SD. As to the method:
The in vivo pharmacokinetics of the selected radioligands were first evaluated in wild-type mice by performing a whole-body biodistribution study. […] Blood and major organs were collected in tared tubes and weighed. Quantification of radioactivity in blood, organs, and other body parts was performed using an automated gamma counter equipped with a 3-inch NaI(Tl) well crystal coupled to a multichannel analyzer, mounted in a sample changer (2480 Wizard^2, Perkin Elmer, Waltham, MA, USA). Counts were corrected for background radiation, physical decay and counter dead time. Results are presented as standardized uptake values (SUV; tissue activity concentration (MBq/g)/[injected dose (MBq)/body weight (g)]).

Data set [3] addresses T1, hCXCR4-expressing U87 cells (U87.hCXCR4) (Homo sapiens, UniProt P61073).
T1 construct: expressed in transfected cells; host or cells: U87 human glioblastoma cells, stably transfected
The data set is described as follows: Binding and internalization assay on U87.hCXCR4 cells. It counts as cell-based. As to conditions: AMD3100 100 µM. The method, then: Cellular uptake and internalization of [^18F]AlF-NOTA-DV1-k-(DV3), [^68Ga]Ga-DOTA-DV1-k-(DV3) and [^177Lu]Lu-DOTA-DV1-k-(DV3) (11, 17 and 7 nM respectively) into U87.hCXCR4 cells (2.5 × 10^5 cells) were investigated and compared with [^68Ga]PentixaFor (6 nM) as control. […] After incubation, the supernatant was removed and combined with 3 mL of ice-cold PBS used for rinsing the cells (unbound fraction). Subsequently, cells were incubated twice with 50 mM Glycine-HCl pH 2.8 for 5 min at room temperature, followed by one washing step with ice-cold PBS (membrane-bound fraction). Then, cells were lysed using 350 µL of reagent A100 (Chemometec, Allerod, Denmark). Reagent B (Chemometec, Allerod, Denmark) was used for rinsing the wells and to quench the lysing of the cells. Quantification of the amount of bound and internalized activity was performed using an automated gamma counter. The number of cells per well was counted using an automated counting device (NucleoCounter® NC-100™, Chemometec, Allerod, Denmark). Results were expressed as percentage of applied radioactivity bound to 2.5 × 10^5 cells.

Another data set concerns the target T2, murine CXCR4 (mCXCR4) (Mus musculus, UniProt P70658).
T2 construct: expressed in transfected cells; host or cells: U87 human glioblastoma cells, stably transfected
The data set is described as follows: Competition binding with fluorescent murine CXCL12^AF647 on U87.mCXCR4 cells (flow cytometry). As to the method:
Competition binding studies (IC50) were performed as described using either Jurkat cells and human CXCL12^AF647 (Almac, UK) as fluorescent ligand or U87.mCXCR4 cells and murine CXCL12^AF647 (Almac, UK) as fluorescent ligand. […] IC50-values were calculated using nonlinear regression (four parameters) in GraphPad Prism 9 (Graph Pad Software, San Diego, CA, USA) based on three biological replicates for each concentration tested.
On the technique in general: In flow cytometry, cells or beads pass a laser one at a time.

The nature of data set [4]: Stability of the peptide in standard labeling conditions (LC-HRMS). It counts as physicochemical. The conditions noted are these: aqueous buffer pH 4, 1 h at 95 °C. As to the method: First, we successfully confirmed previously reported IC50-values of DV1, DV3 and DV1-k-(DV3) for hCXCR4 in an in vitro binding assay (Table 1) and we assessed the stability of the bivalent peptide DV1-k-(DV3) in standard labeling conditions (aqueous buffer pH 4, 1 h at 95 °C).

Structures are written as SMILES. Like-named read-outs stand apart in the source and are kept apart here. Positions of bridges follow the written chain, without caps; N, C: chain ends. Non-standard residues stand in square brackets, D forms with d. Residues, ends and D or L forms follow the SMILES beside them. Groups on a side chain read outwards from the residue. Chains are numbered I, II in the order given. *: point of attachment. DOTA = O=C(O)CN1CCN(CC(=O)O)CCN(CC(=O)*)CCN(CC(=O)O)CC1; 2Nal = N[C@@H](Cc1ccc2ccccc2c1)C(=O)O; dNMeOrn = CN[C@H](CCCN)C(=O)O; 4Amb = NCc1ccc(C(=O)O)cc1 Some results are limits rather than exact numbers.

T2 sequence (P70658 whole entry): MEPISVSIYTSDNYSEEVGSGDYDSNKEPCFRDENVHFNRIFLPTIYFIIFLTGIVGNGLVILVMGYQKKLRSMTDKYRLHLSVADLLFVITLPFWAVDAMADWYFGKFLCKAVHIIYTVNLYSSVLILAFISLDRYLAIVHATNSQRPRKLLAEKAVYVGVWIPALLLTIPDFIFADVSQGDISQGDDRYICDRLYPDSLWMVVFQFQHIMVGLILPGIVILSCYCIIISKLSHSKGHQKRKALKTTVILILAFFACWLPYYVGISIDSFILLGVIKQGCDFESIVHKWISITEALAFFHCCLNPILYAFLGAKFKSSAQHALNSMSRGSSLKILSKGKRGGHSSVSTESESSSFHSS
T1 sequence (P61073 whole entry): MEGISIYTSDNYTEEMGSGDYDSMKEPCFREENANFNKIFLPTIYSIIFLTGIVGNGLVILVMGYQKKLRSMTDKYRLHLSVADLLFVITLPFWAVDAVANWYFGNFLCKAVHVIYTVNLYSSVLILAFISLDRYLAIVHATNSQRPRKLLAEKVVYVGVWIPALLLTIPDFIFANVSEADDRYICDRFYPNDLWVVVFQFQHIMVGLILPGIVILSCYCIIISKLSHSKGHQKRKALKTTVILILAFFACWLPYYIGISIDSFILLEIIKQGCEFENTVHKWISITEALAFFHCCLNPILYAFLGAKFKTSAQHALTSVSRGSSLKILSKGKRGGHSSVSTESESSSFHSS
Procedure for in vivo: The subcutaneous tumor xenograft model was prepared using a published procedure [21]. Briefly, 1 × 10^6 U87.hCXCR4 cells mixed with Cultrex (1:1; Cultrex Basement Membrane Extract, R&D systems, Minneapolis, MN, USA) were implanted subcutaneously into the right shoulder of female 10-week-old SCID mice (CB17.Cg-PrkdcLyst<bg-J>/Crl; Charles River Laboratories, Sulzfeld, Germany). After an average of four weeks, the animals were used in biodistribution and PET/computed tomography (CT) imaging studies. Tumor volumes ranged from 150–574 mm^3 (measured by caliper, h × l × w), while the tumor mass-to-body weight ratio was 0.14–2.34%.
Dynamic PET images were acquired for 60 min immediately after intravenous injection using a beta-cube PET scanner (Molecubes, Gent, Belgium). The mice were kept under gas anesthesia during the entire procedure (2.5% isoflurane in O2 at 1 L/min flow rate), with temperature and respiration monitored throughout. […]
PET data were histogrammed into 14 frames (4 × 15 s, 4 × 1 min, 1 × 5 min, 5 × 10 min) and reconstructed into a 192 × 192 image matrix with 0.4 mm voxels using 30 iterations the native MLEM algorithm with corrections for randoms, scatter, attenuation and decay. […] Radiotracer uptake at 60 min, expressed as SUVmean, was the outcome measure.

With `CC(C)C[C@@H](N)C(=O)NCC(=O)N[C@H](C)C(=O)N[C@H](CO)C(=O)N[C@H](Cc1c[nH]c2ccccc12)C(=O)N[C@H](Cc1c[nH]cn1)C(=O)N[C@H](CCCNC(=N)N)C(=O)N1CCC[C@@H]1C(=O)N[C@H](CC(=O)O)C(=O)N[C@H](CCCCNC(=O)CN1CCN(CC(=O)O)CCN(CC(=O)O)CCN(CC(=O)O)CC1)C(=O)NCCCC[C@@H](NC(=O)[C@H]1CCCN1C(=O)[C@@H](CC(C)C)NC(=O)[C@H]1CCCN1C(=O)[C@@H](CCCNC(=N)N)NC(=O)[C@@H](CCCCN)NC(=O)[C@@H](CCC(N)=O)NC(=O)[C@@H](Cc1ccc(O)cc1)NC(=O)CNC(=O)[C@@H](CC(C)C)NC(=O)[C@@H](CS)NC(=O)[C@@H](CS)NC(=O)[C@@H](CCCCN)NC(=O)[C@@H](CC(=O)O)NC(=O)[C@H]1CCCN1C(=O)[C@@H](CCCNC(=N)N)NC(=O)[C@@H](Cc1c[nH]cn1)NC(=O)[C@@H](Cc1c[nH]c2ccccc12)NC(=O)[C@@H](CO)NC(=O)[C@@H](C)NC(=O)CNC(=O)[C@H](N)CC(C)C)C(=O)O` [[^177Lu]Lu-DOTA-DV1-k-(DV3), metal not drawn] (I: H-[dL]G[dA][dS][dW][dH][dR][dP][dD][dK][dC][dC][dL]G[dY][dQ][dK][dR][dP][dL][dP][dK]-OH / II: H-[dL]G[dA][dS][dW][dH][dR][dP][dD][dK](DOTA); amide I:22-II:C), the remaining at 216 h in data set [1] is more than 98%.
With `CN1C(=O)[C@@H](Cc2ccc(O)cc2)NC(=O)CNC(=O)[C@H](Cc2ccc3ccccc3c2)NC(=O)[C@H](CCCNC(=N)N)NC(=O)[C@H]1CCCNC(=O)c1ccc(CNC(=O)CN2CCN(CC(=O)O)CCN(CC(=O)O)CCN(CC(=O)O)CC2)cc1` [[^68Ga]PentixaFor, metal not drawn] (cyclo([dY][dNMeOrn]([4Amb-DOTA])R[2Nal]G)), the SUV at 1 h in “in vivo” worked out at 2.9 SUV. In addition, the SUV at 1.25 h in data set [2] (blood, + AMD3100 5 mg/kg, n: PentixaFor 1, 18F 2, 68Ga 4, 177Lu 3, read-out: blood uptake) worked out at 0.5 SUV; in data set [2] (blood, tracer alone, n: PentixaFor 3, 18F 5, 68Ga 4, 177Lu 3, read-out: blood uptake), 0.6 ± 0.1 SUV; in data set [2] (bone (femur harboring bone marrow), tracer alone, n: PentixaFor 3, 18F 5, 68Ga 4, 177Lu 3, read-out: bone uptake (femur harboring bone marrow)), 0.2 ± 0.01 SUV; in data set [2] (brain, + AMD3100 5 mg/kg, n: PentixaFor 1, 18F 2, 68Ga 4, 177Lu 3, read-out: brain uptake) it was 0.02 SUV; in data set [2] (brain, tracer alone, n: PentixaFor 3, 18F 5, 68Ga 4, 177Lu 3, read-out: brain uptake), 0.03 ± 0.01 SUV; in data set [2] (heart, + AMD3100 5 mg/kg, n: PentixaFor 1, 18F 2, 68Ga 4, 177Lu 3, read-out: heart uptake) it was 0.3 SUV. Further, the SUV at 1.25 h in data set [2] (heart, tracer alone, n: PentixaFor 3, 18F 5, 68Ga 4, 177Lu 3, read-out: heart uptake) came out at 0.3 ± 0.02 SUV; in data set [2] (kidneys, tracer alone, n: PentixaFor 3, 18F 5, 68Ga 4, 177Lu 3, read-out: kidneys uptake) it was 1.9 ± 1.1 SUV; in data set [2] (liver, + AMD3100 5 mg/kg, n: PentixaFor 1, 18F 2, 68Ga 4, 177Lu 3, read-out: liver uptake), 0.5 SUV; in data set [2] (liver, tracer alone, n: PentixaFor 3, 18F 5, 68Ga 4, 177Lu 3, read-out: liver uptake), 0.6 ± 0.1 SUV; in data set [2] (lungs, + AMD3100 5 mg/kg, n: PentixaFor 1, 18F 2, 68Ga 4, 177Lu 3, read-out: lungs uptake) it was 0.7 SUV; in data set [2] (lungs, tracer alone, n: PentixaFor 3, 18F 5, 68Ga 4, 177Lu 3, read-out: lungs uptake) it was 0.7 ± 0.1 SUV. For the same compound, the SUV at 1.25 h came out at 0.2 SUV in data set [2] (muscle, + AMD3100 5 mg/kg, n: PentixaFor 1, 18F 2, 68Ga 4, 177Lu 3, read-out: muscle uptake); 0.2 ± 0.03 SUV in data set [2] (muscle, tracer alone, n: PentixaFor 3, 18F 5, 68Ga 4, 177Lu 3, read-out: muscle uptake); 0.3 SUV in data set [2] (pancreas, + AMD3100 5 mg/kg, n: PentixaFor 1, 18F 2, 68Ga 4, 177Lu 3, read-out: pancreas uptake); 0.3 ± 0.1 SUV in data set [2] (pancreas, tracer alone, n: PentixaFor 3, 18F 5, 68Ga 4, 177Lu 3, read-out: pancreas uptake); 0.3 SUV in data set [2] (spleen, + AMD3100 5 mg/kg, n: PentixaFor 1, 18F 2, 68Ga 4, 177Lu 3, read-out: spleen uptake); 0.3 ± 0.02 SUV in data set [2] (spleen, tracer alone, n: PentixaFor 3, 18F 5, 68Ga 4, 177Lu 3, read-out: spleen uptake). Besides, the “blocking of cellular uptake by excess AMD3100” value in data set [3] is “completely blocked”.
As for `c1cc(CN2CCCNCCNCCCNCC2)ccc1CN1CCCNCCNCCCNCC1` [AMD3100], at murine CXCR4 (mCXCR4) (murine CXCL12^AF647 as fluorescent ligand, mean ± SD, n = 3, read-out: IC50 [nM] to mCXCR4), the IC50 was found to be 123 ± 17 nM.
As for `CC(C)C[C@@H](N)C(=O)NCC(=O)N[C@H](C)C(=O)N[C@H](CO)C(=O)N[C@H](Cc1c[nH]c2ccccc12)C(=O)N[C@H](Cc1c[nH]cn1)C(=O)N[C@H](CCCNC(=N)N)C(=O)N1CCC[C@@H]1C(=O)N[C@H](CC(=O)O)C(=O)N[C@H](CCCCN)C(=O)NCCCC[C@@H](NC(=O)[C@H]1CCCN1C(=O)[C@@H](CC(C)C)NC(=O)[C@H]1CCCN1C(=O)[C@@H](CCCNC(=N)N)NC(=O)[C@@H](CCCCN)NC(=O)[C@@H](CCC(N)=O)NC(=O)[C@@H](Cc1ccc(O)cc1)NC(=O)CNC(=O)[C@@H](CC(C)C)NC(=O)[C@@H](CS)NC(=O)[C@@H](CS)NC(=O)[C@@H](CCCCN)NC(=O)[C@@H](CC(=O)O)NC(=O)[C@H]1CCCN1C(=O)[C@@H](CCCNC(=N)N)NC(=O)[C@@H](Cc1c[nH]cn1)NC(=O)[C@@H](Cc1c[nH]c2ccccc12)NC(=O)[C@@H](CO)NC(=O)[C@@H](C)NC(=O)CNC(=O)[C@H](N)CC(C)C)C(=O)O` [DV1-k-(DV3)] (I: H-[dL]G[dA][dS][dW][dH][dR][dP][dD][dK][dC][dC][dL]G[dY][dQ][dK][dR][dP][dL][dP][dK]-OH / II: H-[dL]G[dA][dS][dW][dH][dR][dP][dD][dK]; amide I:22-II:C), the “stability in standard labeling conditions” value in data set [4] is on record as “No degradation products were detected”.
As for `CN1C(=O)[C@@H](Cc2ccc(O)cc2)NC(=O)CNC(=O)[C@H](Cc2ccc3ccccc3c2)NC(=O)[C@H](CCCNC(=N)N)NC(=O)[C@H]1CCCNC(=O)c1ccc(CNC(=O)CN2CCN(CC(=O)O)CCN(CC(=O)O)CCN(CC(=O)O)CC2)cc1` [[^natGa]PentixaFor, metal not drawn] (cyclo([dY][dNMeOrn]([4Amb-DOTA])R[2Nal]G)), the IC50 on murine CXCR4 (mCXCR4) (read-out: IC50 [nM] to mCXCR4, murine CXCL12^AF647 as fluorescent ligand, mean ± SD, n = 3) was more than 1000 nM.

As a reminder, the IC50 is the concentration that gives 50% inhibition.
